# Data as given in EP0845210A1, “New herbicidal compositions” (RHONE-POULENC AGRICULTURE LTD., priority 1994, dated 1996).
# Legend:
# Format in all cases: in vivo
# Panicum miliaceum = assay: Procedure D: pre-emergence field trial (Volga, Brookings), visual assessment about 26 days after treatment; conditions: A 375 g/ha alone
# Procedure: (§1) The following experiments were carried out pre-emergence of the weed species. Compound A, formulated as a wettable dispersible granule as described in Example 1 herebelow (750g per kilogram) and each acetochlor (used as the commercially available formulation "Harness" (trade mark), an emulsifiable concentrate containing 960g of acetochlor per kilogram, and which also contains the safening agent flurazole, metolachlor (used as the commercially available formulation "Duelor" (trade mark), an emulsifiable concentrate emulsifiable concentrate containing 960g of metolachlor per kilogram), alachlor (used as the commercially available formulation "Lasso" (trade mark), an emulsifiable concentrate containing 480g of alachlor per kilogram) and dimethenamid (used as the commercially available formulation "Frontiere" (trade mark), a flowable containing 900g/l active ingerident) were dissolved in water and sprayed at a volume rate of 187 litres/hectare on various test plots (10 square meters in area) either alone or in mixtures. The soil was a clay-loam, with a pH of 7, the experiments being conducted in June in Volga, Brookings, U.S.A. The various weed and crop species were drill sown and the various compositions were applied on the same day after drilling. Three replicates were performed and the efficacy of the various mixtures were determined by visual assessment of the percentage phytotoxicity in comparison with an untreated control. Assessment was made about 26 days after treatment. In the Tables which follow the dose is expressed in grammes per hectare and the figures in brackets represent the expected results according to the Colby formula.
# Abutilon theophrasti = assay: as above; conditions: A 37.5 g/ha alone
# Procedure: as §1
# Helianthus annuus = assay: as above; conditions: A 37.5 g/ha alone
# Procedure: as §1
# Amaranthus retroflexus = assay: Procedure A: pre-emergence glasshouse pot test, growth reduction assessed two weeks after treatment; conditions: Table A2
# Description: (§2) Seed of the various species of broad-leaf or grass weeds were sown in unsterilised clay loam soil in 7 centimetre by 7 centimetre plastic plant pots. The pots were watered and allowed to drain. The soil surface was then sprayed with ranges of concentrations of either the individual herbicide or mixtures of two herbicides in various proportions, dissolved in a 50:50 by volume solution of acetone and water, using a track sprayer set to deliver the equivalent of 290 l/ha. All herbicides were used as unformulated technical materials except dimethenamid, which was used as the commercial formulation "Frontiere" (trade mark), a flowable containing 900g/l active ingredient; and alachlor, which was used as "Lasso" (trade mark), an emulsifiable concentrate formulation containing 480g/l active ingredient.
# (§3) Treated pots were placed at random in four replicate blocks per treatment for each plant species. The pots were held, in a glasshouse, standing on moist capillary matting, under lights and with overhead watering twice daily.
# (§4) Two weeks after treatment the percent reduction in plant growth, compared to an untreated control, was assessed.
# (§5) Mean percent reduction in plant growth was calculated for each treatment. Dose/mean response was plotted on Log concentration/Probability graph paper, and lines fitted by eye. For herbicide mixtures a dose/response line for the first herbicide was drawn for each dose rate of the second herbicide and a dose/response line for the second herbicide was drawn for each dose rate of the first herbicide. The doses representing a 90% reduction in plant growth (LD90's) were read from these lines and plotted on graphs whose axes were dose rates of the two herbicides. The line joining these points is an Isobole i.e. a line joining points (mixtures) of equal activity, as described by P.M.L. Tammes, Neth. J. Plant Path. 70 (1964) : 73-80. A line was also drawn joining the LD90's of the individual components of the mixture. This line represents the theoretical isobole if the effect of the two components is additive i.e. there is no interaction between them. Isoboles falling below this line indicate synergy between the components while lines lying above it indicate antagonism.
# (§6) In the tables that follow 'dose' represents the dose rate in grammes per hectare of the active ingredient used; and the figures for the weed control are percentages reduction in growth when compared with the untreated controls.
# Digitaria sanguinalis = assay: as above
# Description: as §2, §3, §4, §5, §6
# Setaria viridis = assay: as above; conditions: Table A1
# Description: as §2, §3, §4, §5, §6
# maize = assay: Procedure C: field trial of crop phytotoxicity, visual assessment 40 days after sowing
# Procedure: The experiments were carried out pre-emergence of the weed species at various research farm locations throughout the Mid-West corn belt in United States of America with Compounds A and D (each formulated as wettable powders) and metolachlor (formulated as a 96% emulsifiable concentrate), alachlor (formulated as a 48% emulsifiable concentrate) and dimethenamid (formulated as a 90% emulsifiable concentrate).
# Various mixtures of the above 4-benzoylisoxazoles and chloroacetamides were weighed out and dissolved in water to give a solution containing the appropriate concentrations and ratios of active ingredients.
# The solution was mixed for one hour and applied at a spray volume of 231 litres/hectare to a 3 metre by 5 metre test plot comprising the maize seed which were sown 2 days earlier. 3 replicates were performed. The experiments were performed using seven varities of maize (except for the mixtures comprising alachlor at 1120 g per hectare, where four varieties were used). A control plot was sprayed with a solution not containing test compound. Visual assessment of phytotoxicity was made 40 days after sowing the maize seeds based on a comparison with the control plot. Table F1
smiles,measurement,setting,value
"CS(=O)(=O)c1cc(C(F)(F)F)ccc1C(=O)c1cnoc1C1CC1 [Compound A, 5-cyclopropyl-4-(2-methylsulphonyl-4-trifluoromethyl)benzoylisoxazole]",percentage phytotoxicity,Panicum miliaceum,65%
same,percentage phytotoxicity,Abutilon theophrasti,93%
same,percentage phytotoxicity,Helianthus annuus,18%
same,percent reduction in plant growth,Amaranthus retroflexus; A 1 g/ha alone,12.5%
same,percent reduction in plant growth,Amaranthus retroflexus; A 2 g/ha alone,51.25%
same,percent reduction in plant growth,Amaranthus retroflexus; A 4 g/ha alone,12.5%
same,percent reduction in plant growth,Amaranthus retroflexus; A 8 g/ha alone,87.5%
same,percent reduction in plant growth,Amaranthus retroflexus; A 16 g/ha alone,92.5%
same,percent reduction in plant growth,Amaranthus retroflexus; A 32 g/ha alone,99.75%
same,percent reduction in plant growth,Amaranthus retroflexus; A 64 g/ha alone,99.75%
same,percent reduction in plant growth,"Digitaria sanguinalis; A 1 g/ha alone, Table B1",18.75%
same,percent reduction in plant growth,"Digitaria sanguinalis; A 1 g/ha alone, Table D1",0%
same,percent reduction in plant growth,"Digitaria sanguinalis; A 2 g/ha alone, Table B1",20%
same,percent reduction in plant growth,"Digitaria sanguinalis; A 2 g/ha alone, Table C1",20%
same,percent reduction in plant growth,"Digitaria sanguinalis; A 2 g/ha alone, Table D1",12.5%
same,percent reduction in plant growth,"Digitaria sanguinalis; A 4 g/ha alone, Table B1",33.75%
same,percent reduction in plant growth,"Digitaria sanguinalis; A 4 g/ha alone, Table C1",40%
same,percent reduction in plant growth,"Digitaria sanguinalis; A 4 g/ha alone, Table D1",17.5%
same,percent reduction in plant growth,"Digitaria sanguinalis; A 8 g/ha alone, Table B1",67.5%
same,percent reduction in plant growth,"Digitaria sanguinalis; A 8 g/ha alone, Table C1",7.5%
same,percent reduction in plant growth,"Digitaria sanguinalis; A 8 g/ha alone, Table D1",61.25%
same,percent reduction in plant growth,"Digitaria sanguinalis; A 16 g/ha alone, Table B1",50%
same,percent reduction in plant growth,"Digitaria sanguinalis; A 16 g/ha alone, Table C1",50%
same,percent reduction in plant growth,"Digitaria sanguinalis; A 16 g/ha alone, Table D1",67.5%
same,percent reduction in plant growth,"Digitaria sanguinalis; A 32 g/ha alone, Table B1",73.5%
same,percent reduction in plant growth,"Digitaria sanguinalis; A 32 g/ha alone, Table C1",74.75%
same,percent reduction in plant growth,"Digitaria sanguinalis; A 32 g/ha alone, Table D1",66%
same,percent reduction in plant growth,"Digitaria sanguinalis; A 64 g/ha alone, Table B1",87.5%
same,percent reduction in plant growth,"Digitaria sanguinalis; A 64 g/ha alone, Table C1",80%
same,percent reduction in plant growth,"Digitaria sanguinalis; A 64 g/ha alone, Table D1",95%
same,percent reduction in plant growth,"Digitaria sanguinalis; A 128 g/ha alone, Table C1",93.5%
same,percent reduction in plant growth,"Digitaria sanguinalis; A 128 g/ha alone, Table D1",76.25%
same,percent reduction in plant growth,"Digitaria sanguinalis; A 256 g/ha alone, Table D1",98.75%
same,percent reduction in plant growth,Setaria viridis; A 0.5 g/ha alone,15%
same,percent reduction in plant growth,Setaria viridis; A 1 g/ha alone,5%
same,percent reduction in plant growth,Setaria viridis; A 2 g/ha alone,47.5%
same,percent reduction in plant growth,Setaria viridis; A 4 g/ha alone,33.75%
same,percent reduction in plant growth,Setaria viridis; A 8 g/ha alone,38.75%
same,percent reduction in plant growth,Setaria viridis; A 16 g/ha alone,53.75%
same,percent reduction in plant growth,Setaria viridis; A 32 g/ha alone,70%
same,percent reduction in plant growth,Setaria viridis; A 64 g/ha alone,76%
same,percent reduction in plant growth,Setaria viridis; A 128 g/ha alone,88.75%
same,Visual assessment of phytotoxicity,maize; A 78 g/ha alone,0
same,Visual assessment of phytotoxicity,maize; A 105 g/ha alone,0
